Values joined by “and” are separate entries in the source; they are usually repeats but may differ in a detail not shown here. Identical values can stand only once. Inconclusive results and toxic doses are left out. The calls were made as follows: active = survival T/C of 150% or more; inactive = T/C below 125% in these data.
Test system: P388 leukemia ip, CD2F1 mice, survival T/C
Experiment: NCI In Vivo Anticancer Drug Screen. Data for tumor model P388 Leukemia (intraperitoneal) in CD2F1 (CDF1) mice
Conditions: endpoint: median survival time, higher = longer survival
Method in brief: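 Mice carrying the transplanted tumor received test compound or vehicle. Survival was recorded in each group, and the value is the treated-group measurement divided by that of the vehicle-treated control group.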

[1] = dose: 12.5 mg/kg/injection, schedule: Q01DX009 (ip), vehicle: saline
[2] = dose: 60.0 mg/kg/injection, schedule: Q01DX005 (ip), vehicle: saline with Tween-80
[3] = dose: 120.0 mg/kg/injection, schedule: Q01DX005 (ip), vehicle: saline with Tween-80
[4] = dose: 50.0 mg/kg/injection, schedule: Q01DX005 (ip), vehicle: Klucel (hydroxypropylcellulose) (HPC)
[5] = dose: 100.0 mg/kg/injection, schedule: Q01DX005 (ip), vehicle: Klucel (hydroxypropylcellulose) (HPC)
[6] = dose: 200.0 mg/kg/injection, schedule: Q01DX005 (ip), vehicle: Klucel (hydroxypropylcellulose) (HPC)
[7] = dose: 100.0 mg/kg/injection, schedule: Q01DX001 (ip), vehicle: saline with Tween-80
[8] = dose: 60.0 mg/kg/injection, schedule: Q01DX005 (ip), vehicle: Klucel (hydroxypropylcellulose) (HPC)
[9] = dose: 120.0 mg/kg/injection, schedule: Q01DX005 (ip), vehicle: Klucel (hydroxypropylcellulose) (HPC)
[10] = dose: 240.0 mg/kg/injection, schedule: Q01DX005 (ip), vehicle: Klucel (hydroxypropylcellulose) (HPC)
[11] = dose: 50.0 mg/kg/injection, schedule: Q01DX009 (ip), vehicle: saline with Tween-80
[12] = dose: 100.0 mg/kg/injection, schedule: Q01DX009 (ip), vehicle: saline with Tween-80
[13] = dose: 240.0 mg/kg/injection, schedule: Q01DX005 (ip), vehicle: saline with Tween-80
[14] = dose: 200.0 mg/kg/injection, schedule: Q01DX009 (ip), vehicle: saline with Tween-80
[15] = dose: 50.0 mg/kg/injection, schedule: Q01DX009 (ip), vehicle: saline
[16] = dose: 100.0 mg/kg/injection, schedule: Q01DX009 (ip), vehicle: saline
[17] = dose: 50.0 mg/kg/injection, schedule: Q01DX005 (ip), vehicle: saline with Tween-80
[18] = dose: 100.0 mg/kg/injection, schedule: Q01DX005 (ip), vehicle: saline with Tween-80
[19] = dose: 200.0 mg/kg/injection, schedule: Q01DX005 (ip), vehicle: saline with Tween-80
[20] = dose: 25.0 mg/kg/injection, schedule: Q01DX009 (ip), vehicle: saline
[21] = dose: 25.0 mg/kg/injection, schedule: Q01DX009 (ip), vehicle: saline with Tween-80
[22] = dose: 100.0 mg/kg/injection, schedule: Q04DX003 (ip), vehicle: saline with Tween-80
[23] = dose: 200.0 mg/kg/injection, schedule: Q04DX003 (ip), vehicle: saline with Tween-80
[24] = dose: 400.0 mg/kg/injection, schedule: Q01DX009 (ip), vehicle: saline with Tween-80
[25] = dose: 400.0 mg/kg/injection, schedule: Q04DX003 (ip), vehicle: saline with Tween-80

Measured: T/C

O=c1c(O)c(-c2cc(O)c(O)c(O)c2)oc2cc(O)cc(O)c12
inactive: dose: 6.25 mg/kg/injection, schedule: Q01DX009 (ip), vehicle: Klucel (hydroxypropylcellulose) (HPC) 105 % of control | dose: 12.5 mg/kg/injection, schedule: Q01DX009 (ip), vehicle: Klucel (hydroxypropylcellulose) (HPC) 112 % of control | dose: 25.0 mg/kg/injection, schedule: Q01DX009 (ip), vehicle: Klucel (hydroxypropylcellulose) (HPC) 124 % of control | dose: 100.0 mg/kg/injection, schedule: Q01DX009 (ip), vehicle: other 89 % of control | dose: 200.0 mg/kg/injection, schedule: Q01DX009 (ip), vehicle: other 98 % of control

C/C(=N/NC(N)=O)c1cccc(/C(C)=N/NC(N)=O)n1.[Cl][Cu][Cl]
inactive: dose: 3.12 mg/kg/injection, schedule: Q01DX009 (ip), vehicle: saline 108 % of control | dose: 6.25 mg/kg/injection, schedule: Q01DX009 (ip), vehicle: saline 94 % of control | [1] 99 % of control

COc1ccc(C(c2c(O)c3ccccc3oc2=O)N2CCOCC2)c(OC)c1 (configuration not stated)
inactive: [2] 99 % of control | [3] 107 % of control

C[C@@]1(N=Cc2ccccc2)C(=O)NC(=O)C2=CN(Cc3ccccc3)C=C[C@@H]21
inactive: [4] 102 % of control | [5] 99 % of control | [6] 89 % of control

CNc1nnnc2c1sc1ccccc12
inactive: [7] 105 % of control | dose: 200.0 mg/kg/injection, schedule: Q01DX001 (ip), vehicle: saline with Tween-80 102 % of control | dose: 400.0 mg/kg/injection, schedule: Q01DX001 (ip), vehicle: saline with Tween-80 104 % of control

COC(=O)/C(C)=C/C1N=C1c1ccccc1 (configuration not stated)
inactive: dose: 25.0 mg/kg/injection, schedule: Q01DX001 (ip), vehicle: saline with Tween-80 114 % of control | dose: 50.0 mg/kg/injection, schedule: Q01DX001 (ip), vehicle: saline with Tween-80 118 % of control | [7] 123 % of control

CCC1SC2=NCCN2C1(O)c1ccc(Cl)cc1 (configuration not stated)
inactive: [8] 96 % of control | [9] 95 % of control | [10] 89 % of control

CN(C)C(=O)COC(C(=O)N(C)C)C(OCC(=O)N(C)C)C(=O)N(C)C (configuration not stated)
inactive: dose: 50.0 mg/kg/injection, schedule: Q01DX005 (ip), vehicle: saline 97 % of control | dose: 100.0 mg/kg/injection, schedule: Q01DX005 (ip), vehicle: saline 95 % of control | dose: 200.0 mg/kg/injection, schedule: Q01DX005 (ip), vehicle: saline 92 % of control

CCOC(=O)C1=C(c2ccccc2)OC(N)=C(C#N)C1c1ccc(C)cc1 (configuration not stated)
inactive: [4] 113 % of control | [5] 101 % of control | [6] 103 % of control

COc1ccc(/C=C2/C(=O)N(c3ccccc3)N=C2C)c(OC)c1
inactive: dose: 30.0 mg/kg/injection, schedule: Q01DX005 (ip), vehicle: Klucel (hydroxypropylcellulose) (HPC) 91 % of control | [8] 88 % of control and 95 % of control | [9] 94 % of control | [10] 86 % of control

O=c1c2ccccc2nc2n1CCC/C2=C\c1ccc(Cl)cc1
inactive: dose: 92.5 mg/kg/injection, schedule: Q04DX002 (ip), vehicle: Klucel (hydroxypropylcellulose) (HPC) 97 % of control | dose: 185.0 mg/kg/injection, schedule: Q04DX002 (ip), vehicle: Klucel (hydroxypropylcellulose) (HPC) 105 % of control | dose: 370.0 mg/kg/injection, schedule: Q04DX002 (ip), vehicle: Klucel (hydroxypropylcellulose) (HPC) 97 % of control

NS(=O)(=O)c1cc(Cl)cc(Cl)c1O
inactive: [11] 100 % of control | [12] 120 % of control

COc1cc([C@H]2c3c(cc(OC)c(OC)c3OC)CC3COC(=O)[C@@H]32)cc2c1OCO2 (some centres not stated)
inactive: [2] 98 % of control | [3] 92 % of control | [13] 90 % of control

O=Nc1cc(S(=O)(=O)O)c2ccccc2c1O
inactive: [11] 100 % of control | [12] 90 % of control | [14] 90 % of control

O=CNc1ccn[nH]1
inactive: [15] 106 % of control | [16] 101 % of control | dose: 200.0 mg/kg/injection, schedule: Q01DX009 (ip), vehicle: saline 100 % of control

CCOC(=O)C/C(C)=N\N(C)C(N)=O
inactive: [15] 91 % of control | [16] 94 % of control

CCOc1cc2c(cc1C(C)c1ccccc1OC)OCO2 (configuration not stated)
inactive: [17] 100 % of control | [18] 98 % of control | [19] 96 % of control

O=C1N(Cc2ccccc2)C2CCS(=O)CCC2N1Cc1ccccc1 (configuration not stated)
inactive: [17] 100 % of control | [18] 95 % of control | [19] 92 % of control

CN(C)P1(N(C)C)=NP(N(C)C)(N(C)C)=NP(N(C)C)(N(C)C)=N1
inactive: [1] 99 % of control | [20] 89 % of control | dose: 25.0 mg/kg/injection, schedule: Q04DX003 (ip), vehicle: saline 99 % of control | [15] 90 % of control | dose: 50.0 mg/kg/injection, schedule: Q04DX003 (ip), vehicle: saline 100 % of control | [16] 96 % of control | dose: 100.0 mg/kg/injection, schedule: Q04DX003 (ip), vehicle: saline 100 % of control

Cc1ccc(C(=O)N=[N+]=[N-])o1
inactive: dose: 12.5 mg/kg/injection, schedule: Q01DX009 (ip), vehicle: saline with Tween-80 98 % of control | [21] 100 % of control | [11] 100 % of control

NC(=O)C1C(=O)NC(=O)C1=O (configuration not stated)
inactive: dose: 15.0 mg/kg/injection, schedule: Q01DX005 (ip), vehicle: saline with Tween-80 100 % of control | dose: 30.0 mg/kg/injection, schedule: Q01DX005 (ip), vehicle: saline with Tween-80 101 % of control | [2] 109 % of control and 114 % of control

O=S(=O)(Nc1ccc(Br)cc1)c1ccccc1
inactive: [12] 100 % of control | [22] 100 % of control | [14] 90 % of control | [23] 95 % of control | [24] 100 % of control | [25] 91 % of control

CC1([CH2][Hg][I])OCCOC1[CH2][Hg][I] (configuration not stated)
inactive: [20] 105 % of control

Nc1cccc(C(=O)c2cccc(N)c2)c1
inactive: [22] 100 % of control | [23] 95 % of control | [25] 100 % of control

[CH3][Sn]([CH3])([n]1cc(CC(=O)O)c2ccccc21)[n]1cc(CC(=O)O)c2ccccc21
inactive: [4] 116 % of control | [5] 108 % of control

Cc1ccc2occ3c(=O)n(C)nc-3c2c1
inactive: [2] 95 % of control | [3] 91 % of control | [13] 94 % of control

CC/C(=N\OC(=O)Nc1ccccc1)c1ccc(OC(=O)Nc2ccccc2)cc1
inactive: [17] 99 % of control | [18] 95 % of control | [19] 104 % of control

CS(=O)(=O)OCC(F)(F)COS(C)(=O)=O
inactive: [17] 94 % of control | [18] 100 % of control | [19] 99 % of control

O=C(O)c1cc(C(=O)O)c(C(=O)O)cc1C(=O)O
inactive: dose: 50.0 mg/kg/injection, schedule: Q01DX009 (ip), vehicle: water 96 % of control | dose: 100.0 mg/kg/injection, schedule: Q01DX009 (ip), vehicle: water 100 % of control | dose: 200.0 mg/kg/injection, schedule: Q01DX009 (ip), vehicle: water 99 % of control

O=C(CCl)NC(Cc1ccc(O)cc1)C(=O)O (configuration not stated)
inactive: [21] 104 % of control | [11] 99 % of control | [12] 101 % of control and 105 % of control | [14] 94 % of control | [24] 114 % of control

CCn1c2ccccc2c2ccc(N=Cc3ccc(N(C)C)cc3)cc21
inactive: dose: 50.0 mg/kg/injection, schedule: Q01DX009 (ip), vehicle: Klucel (hydroxypropylcellulose) (HPC) 89 % of control | dose: 100.0 mg/kg/injection, schedule: Q01DX009 (ip), vehicle: Klucel (hydroxypropylcellulose) (HPC) 94 % of control | dose: 200.0 mg/kg/injection, schedule: Q01DX009 (ip), vehicle: Klucel (hydroxypropylcellulose) (HPC) 103 % of control

CCOC(=O)c1cnc2cc3c(c[nH]n3C(c3ccccc3)(c3ccccc3)c3ccccc3)cc2c1=O
inactive: [11] 94 % of control | [12] 96 % of control | [14] 97 % of control
